Data reported in patent publication US12378178B2, “Oleic acid derivatives as treatments for Friedreich ataxia and inhibitors of ferroptosis” (THE TRUSTEES OF THE UNIVERSITY OF PENNSYLVANIA, priority 2019, dated 2025).
“Also recorded” adds a separate entry of the source.

Columns and labels:
[1] = tested on: human FRDA fibroblast line GM4078; assay: Survival of human FRDA fibroblast line GM4078 treated with FAC and BSO; assay type: cell-based; conditions: for Relative to Oleic Acid (change in survival compared to cells treated with 40 μM oleic acid) / toxicity / activity in dose response: FAC and BSO; for toxicity: compound 40 μM; for activity in dose response: lower concentrations down to 5 μM; for activity: trifluoromethyl ketone and alcohol analogs
Description: To test the efficacy of the above compounds, they were tested at least at two different concentrations using human FRDA fibroblast line GM4078 treated with FAC and BSO and the change in survival compared to cells treated with 40 μM oleic acid was measured Table 2 has the results of the compounds tested at 40 μM.

[2] = tested on: mouse fibroblast I154F cell lines; assay: Rescue of viability of murine I154F fibroblasts treated with FAC+BSO; conditions: for activity in FAC+BSO assay: following FAC+BSO treatment, concentration not given; for Relative to Oleic Acid: 1 = oleic acid, 0.5 = no rescue
lipoxygenases (Lox) = assay: In vitro lipoxygenase activity assay; assay type: biochemical; conditions: compound at 1 nM and 10 nM; solubility problems precluded higher concentrations
Description: Oleic acid has been reported to inhibit soybean lipoxygenase, as well as human 15-lipoxygenase, by binding an allosteric site. […] Whether O[…] was inhibiting lipoxygenase activity was tested using an in vitro assay.

[3] = tested on: murine fibroblast I154F cells; assay: Lipid peroxidation in murine fibroblast I154F cells; assay type: cell-based
Description: The basal level of lipid peroxides was tested in the murine fibroblast I154F cells compared to the parental line 2F1 and a detectable higher level of lipid peroxides was found in the cells containing a missense frataxin (FIG. 3A).

[4] = tested on: human FRDA fibroblasts 3816; assay: Rescue of human FRDA fibroblasts 3816 treated with erastin; assay type: cell-based; conditions: for survival: 10 μM erastin for 24 h (85% cell death)
[5] = tested on: immortalized human fibroblasts 3665-T cells; assay: Survival of immortalized human fibroblasts 3665-T treated with FAC and BSO; assay type: cell-based; conditions: for survival: FAC and BSO (95% cell death)
Source text: Stereospecific activity of the two enantiomers was confirmed using the immortalized human fibroblasts 3665-T cells, a more severe model of FRDA. […] (FIG. 2A).

[6] = tested on: human FRDA fibroblasts 3816; assay: Rescue of human FRDA fibroblasts 3816 treated with erastin; assay type: cell-based; conditions: erastin 5 μM; for survival: 48 h (erastin alone 32%)
Description: Addition of O[…] at 5 μM was sufficient to increase survival to 50% (1.5 fold) and at 10 μM and 20 μM survival went up to 80 and 84% (2.5 and 2.6 fold) respectively (FIG. 2B).

[7] = tested on: immortalized myoblast cell line transfected with a frataxin siRNA; assay: Lipid peroxidation in immortalized myoblast cell line with frataxin siRNA knock-down; assay type: cell-based; conditions: compound 5 μM every 48 h post transfection
Description: Knocking-down frataxin in human fibroblasts results in increased lipid peroxidation, which could be easily measured when the cells were also treated with the ferroptosis inducer RSL-3. To test whether OA200R would be efficacious in the knock-down system, an immortalized myoblast cell line was transfected with a frataxin siRNA or a scrambled siRNA control. A 65% protein loss was achieved over 4 days and a statistically significant increase of lipid peroxidation (1.4 fold) compared to the cells transfected with a scrambled control.

[8] = tested on: murine fibroblast I154F cells; assay: Rescue from erastin-induced ferroptosis, murine I154F fibroblast model; assay type: cell-based; conditions: 5 μM erastin for 48 h (erastin alone 44%)
PGC1-α = PGC1-α expression in human FRDA fibroblasts GM3816; assay type: cell-based; conditions: compound 16 μM; after 96 h
Description: Oleic acid, as well as other fatty acids of different length and degree of saturation, binds and activates the peroxisome proliferator-activated receptor gamma (PPAR-γ), a key regulator of glucose and lipid metabolism, which up-regulates PGC1-α, among other targets. Pioglitazone, a PPAR-γ agonist is a thiazolidinedione used to treat type-2 diabetes. […] Human FRDA fibroblasts GM3816 were treated with 10 μM pioglitazone and increased PGC1-α expression was measured starting at 48 h. The expression doubled at 96 h, a time frame sufficient for PGC1-α to have an effect in a typical FAC+BSO experiment, whereas 16 μM oleic acid increased PGC1-α expression only 1.4 fold after 96 h.

[9] = tested on: healthy human fibroblasts with frataxin knockdown; conditions: earlier work referred to in the text; cited from earlier work

Compound: CCCCCC/C=C\CCCCCCCCC(O)C(F)(F)F (racemic) [[rac]-HA-200]
- Relative to Oleic Acid (change in survival compared to cells treated with 40 μM oleic acid) ([1]; tested at 40 μM): 0.56 ± 0.03

Compound: CCCCCCCC/C=C\CCCCCCCC(O)C(F)(F)F (racemic) [[rac]-OA-200, (Z)-1,1,1-trifluorononadec-10-en-2-ol]
- Relative to Oleic Acid (change in survival compared to cells treated with 40 μM oleic acid) ([1]; 10 μM printed beside the value): 0.67 ± 0.17
- potency in rescuing cell viability compared with oleic acid ([1]; cells treated with FAC and BSO, or with erastin): significantly more potent than oleic acid
- toxicity [1]: slightly toxic
- activity in dose response [1]: active

Compound: CCCCCCCCCC(=O)O [Capric Acid]
- activity in FAC+BSO assay [2]: inactive
- Relative to Oleic Acid ([2]; tested at 40 μM, <0.5 toxic): 0.49 ± 0.09

Compound: CCCCCC/C=C\CCCCCCCCCC(=O)O [Cis-Vaccenic Acid]
- efficacy in FAC+BSO assay ([2]; compound 40 μM): comparable to oleic acid
- Relative to Oleic Acid ([2]; tested at 40 μM, <0.5 toxic): 1.00 ± 0.08

Compound: CCCCCCCC/C=C/CCCCCCCC(=O)O [Elaidic Acid]
- efficacy in FAC+BSO assay ([2]; compound 40 μM): slightly toxic
- efficacy in FAC+BSO assay ([2]; compound 160 μM): somehow effective
- Relative to Oleic Acid ([2]; tested at 40 μM, <0.5 toxic): 0.30 ± 0.08

Compound: CCCCCCCC/C=C\CCCCCCCCCCCC(=O)O [Erucic add]
- efficacy in FAC+BSO assay ([2]; compound 40 μM): comparable to oleic acid
- Relative to Oleic Acid ([2]; tested at 40 μM, <0.5 toxic): 0.93 ± 0.07

Compound: CCCCCCCCCC/C=C\CCCCCCCC(=O)O [Gadoleic acid]
- efficacy in FAC+BSO assay ([2]; compound 40 μM): comparable to oleic acid
- Relative to Oleic Acid ([2]; tested at 40 μM, <0.5 toxic): 0.77 ± 0.16

Compound: CCCCCC/C=C\CCCCCCCCC(=O)C(F)(F)F [HA-210]
- Relative to Oleic Acid (change in survival compared to cells treated with 40 μM oleic acid) ([1]; tested at 40 μM): 0.35 ± 0.02

Compound: CCCCCCCCCCCC(=O)O [Lauric Acid]
- activity in FAC+BSO assay [2]: inactive
- Relative to Oleic Acid ([2]; tested at 40 μM, <0.5 toxic): 0.47 ± 0.12

Compound: CCCCCCCCCCCCCC(=O)O [Myristic Acid]
- Relative to Oleic Acid ([2]; tested at 40 μM, <0.5 toxic): 0.11 ± 0.02

Compound: CCCCCCCC/C=C\CCCCCCC[C@@H](O)C(F)(F)F [OA200R, (R,Z)-1,1,1-trifluorononadec-10-en-2-ol]
- Lox enzymatic activity (lipoxygenases (Lox)): did not affect Lox enzymatic activity; also recorded: does not inhibit
- concentration at which reduction of lipid peroxidation reached statistical significance [3]: 5 µM
- lipid peroxidation ([3]; basal lipid peroxides): reduced lipid peroxidation in a dose-dependent manner
- survival ([4]; compound 5 μM): 48%
- survival ([4]; compound 10 μM): 87%
- survival ([4]; compound 20 μM): 88%
- potency of (R)-enantiomer relative to (S)-enantiomer ([1]; rescue of cell viability, assay not given): seven-fold
- activity ([1]; assay not given): activity resides in the (R) enantiomer
- survival ([5]; compound 10 μM): 25%
- survival ([5]; compound 20 μM): 77%
- survival ([5]; compound 40 μM): 95%
- increase of survival ([6]; compound 5 μM, 48 h): 1.5 fold
- survival ([6]; compound 5 μM): 50%
- increase of survival ([6]; compound 10 μM, 48 h): 2.5 fold
- survival ([6]; compound 10 μM): 80%
- increase of survival ([6]; compound 20 μM, 48 h): 2.6 fold
- survival ([6]; compound 20 μM): 84%
- decreased lipid peroxidation [7]: 20%

Compound: CCCCCCCCC=CCCCCCCCC(=O)NO [OA310]
- Relative to Oleic Acid ([2]; 10 μM): 1.04 ± 0.04

Compound: CCCCCCCCC1OC1CCCCCCCC(=O)O (stereo not shown) [OA-50]
- Relative to Oleic Acid (change in survival compared to cells treated with 40 μM oleic acid) ([1]; tested at 40 μM): 0.15 ± 0.02

Compound: CCCCCCCCC(O)C(O)CCCCCCCC(=O)O (stereo not shown) [OA-81]
- Relative to Oleic Acid (change in survival compared to cells treated with 40 μM oleic acid) ([1]; tested at 40 μM): 0.14 ± 0.03

Compound: CCCCCCCCC1OC(C)(C)OC1CCCCCCCC(=O)O (stereo not shown) [OA-90]
- Relative to Oleic Acid (change in survival compared to cells treated with 40 μM oleic acid) ([1]; tested at 40 μM): 0.05 ± 0.02

Compound: CCCCCCCCC1OC2(CCCCC2)OC1CCCCCCCC(=O)O (stereo not shown) [OA-95]
- Relative to Oleic Acid (change in survival compared to cells treated with 40 μM oleic acid) ([1]; tested at 40 μM): 0.24 ± 0.04

Compound: CCCCCCCC/C=C\CCCCCCCC(=O)C(F)(F)F [OA-210, (Z)-1,1,1-trifluorononadec-10-en-2-one]
- Relative to Oleic Acid (change in survival compared to cells treated with 40 μM oleic acid) ([1]; 10 μM printed beside the value): 0.52 ± 0.13
- toxicity [1]: slightly toxic
- activity in dose response [1]: active

Compound: CCCCCCCC/C=C\CCCCCCCC(N)=O [Oleic Acid NH2]
- Relative to Oleic Acid ([2]; tested at 40 μM, <0.5 toxic): 0.79 ± 0.13

Compound: CCCCCCCC/C=C\CCCCCCCC(=O)OCC [Oleic Acid OEt]
- Relative to Oleic Acid ([2]; tested at 40 μM, <0.5 toxic): 0.77 ± 0.18

Compound: CCCCCCCC/C=C\CCCCCCCC(=O)OC [Oleic Acid OMe]
- Relative to Oleic Acid ([2]; tested at 40 μM, <0.5 toxic): 0.95 ± 0.12

Compound: CCCCCCCC/C=C\CCCCCCCC(=O)O [Oleic Acid]
- cell survival ([8]; compound 5 μM): 49%
- cell survival ([8]; compound 10 μM): 55%
- cell survival ([8]; compound 20 μM): 65%
- effect on cell survival ([2]; compound 16 μM, FAC+BSO): doubled cell survival
- efficacy in FAC+BSO assay ([2]; compound 40 μM): doubled survival
- EC50 ([2]; read-out: EC50 in the FAC+BSO in mouse fibroblasts assay, FAC+BSO): 23 µM
- Relative to Oleic Acid ([2]; tested at 40 μM, <0.5 toxic): 1.03 ± 0.04
- rescue of cell viability ([4]; compound 40 μM, 10 μM erastin for 24 h): did not rescue cell viability
- increase of PGC1-α expression (PGC1-α): 1.4 fold
- increase of survival ([6]; compound 20 μM, 48 h): 1.5 fold

Compound: CCCCCCCCCCCCCCCC(=O)O [Palmitic Acid]
- Relative to Oleic Acid ([2]; tested at 40 μM, <0.5 toxic): 0.18 ± 0.07

Compound: CCCCCC/C=C\CCCCCCCC(=O)O [Palmitoleic Acid]
- Relative to Oleic Acid ([2]; 20 μM): 0.73 ± 0.04
- efficacy in FAC+BSO assay ([2]; compound 40 μM): comparable to oleic acid
- Relative to Oleic Acid ([2]; tested at 40 μM, <0.5 toxic): 0.77 ± 0.03

Compound: CCCCCCCCCCC/C=C\CCCCC(=O)O [Petrosenilic Acid]
- efficacy in FAC+BSO assay ([2]; compound 40 μM): comparable to oleic acid
- Relative to Oleic Acid ([2]; tested at 40 μM, <0.5 toxic): 0.74 ± 0.04

Compound: CCCCCCCC/C=C\CCCCCCC[C@H](O)C(F)(F)F [S-isomer, (S,Z)-1,1,1-trifluorononadec-10-en-2-ol]
- activity ([4]; any concentration, 10 μM erastin for 24 h): inactive
- activity ([1]; assay not given): inactive
- efficacy ([5]; compound 5 μM, FAC and BSO): inefficacious
- survival ([5]; compound 20 μM): 10%
- survival ([5]; compound 40 μM): 22%
- activity ([6]; compound between 20 and 5 μM, 48 h): no activity

Compound: CCOC(=O)c1ccc(NC2CCCCC2)c(NCc2ccccc2)c1 [SRS11-92]
- cell death associated with frataxin knockdown [9]: decreased the cell death

Compound: CCCCCCCCCCCCCCCCCC(=O)O [Stearic Acid]
- effect on cell survival ([2]; compound 16 μM, FAC+BSO): no effect
- Relative to Oleic Acid ([2]; tested at 40 μM, <0.5 toxic): 0.50 ± 0.06

Compound: CCCCC/C=C\C/C=C\CCCCCCCC(=O)O [linoleic acid]
- cell viability ([2]; compound 16 μM, FAC+BSO (alone 40% of control cells)): 30 % of control cells

Compound: CCCCC/C=C\C/C=C\C/C=C\CCCCC(=O)O [γ-linolenic Acid]
- activity in FAC+BSO assay [2]: increased cell death
- Relative to Oleic Acid ([2]; tested at 40 μM, <0.5 toxic): 0.16 ± 0.02

Compound: Heptadecenoic acid
- Relative to Oleic Acid ([2]; 20 μM): 0.7 ± 0.05
- Relative to Oleic Acid ([2]; tested at 40 μM, <0.5 toxic): 0.83 ± 0.05
